Read-outs that look alike come from different tables or passages of the source.
Legend:
[1] = target: T1, full-length beta-Catenin (Uniprot ID P35222) (Homo sapiens, UniProt P35222); assay: Fluorescence polarization IC50 (beta-catenin / 5FAM-TCF4 10-53 competition); format: binding; details: fluorescence polarization; read-out: beta-Catenin FP IC50
T1 construct: 10 nM full-length beta-Catenin (Uniprot ID P35222)
T1 sequence (P35222 1-781): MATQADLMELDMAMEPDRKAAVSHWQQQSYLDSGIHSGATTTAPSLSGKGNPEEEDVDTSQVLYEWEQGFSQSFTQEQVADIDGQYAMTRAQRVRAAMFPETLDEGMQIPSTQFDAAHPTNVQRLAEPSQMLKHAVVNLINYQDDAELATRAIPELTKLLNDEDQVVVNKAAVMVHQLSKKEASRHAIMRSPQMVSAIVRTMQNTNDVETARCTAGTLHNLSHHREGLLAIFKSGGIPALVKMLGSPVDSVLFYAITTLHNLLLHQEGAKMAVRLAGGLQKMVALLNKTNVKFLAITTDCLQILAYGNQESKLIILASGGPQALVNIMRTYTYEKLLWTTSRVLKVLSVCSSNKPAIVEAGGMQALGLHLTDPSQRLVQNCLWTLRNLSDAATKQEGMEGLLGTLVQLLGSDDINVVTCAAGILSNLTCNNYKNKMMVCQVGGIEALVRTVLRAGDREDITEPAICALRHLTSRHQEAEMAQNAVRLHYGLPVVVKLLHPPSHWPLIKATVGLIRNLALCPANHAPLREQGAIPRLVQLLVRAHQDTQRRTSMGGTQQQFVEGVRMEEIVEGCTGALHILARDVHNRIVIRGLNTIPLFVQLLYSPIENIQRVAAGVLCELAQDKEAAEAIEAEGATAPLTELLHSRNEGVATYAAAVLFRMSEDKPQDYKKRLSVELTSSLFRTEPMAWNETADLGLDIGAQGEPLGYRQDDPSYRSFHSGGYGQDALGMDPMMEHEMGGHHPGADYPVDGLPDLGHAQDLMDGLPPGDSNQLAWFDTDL

[2] = target: T2, beta-catenin/TCF4 engagement (Homo sapiens, UniProt P35222); assay: Nano-BRET target engagement assay (B-cat-Halo & TCF4-Luc in HEK293 cells); format: cell-based; details: read-out: NanoBRET Abs IC50
T2 construct: expressed in transfected cells; host or cells: HEK293
T2 sequence (P35222 1-781): T1 sequence (P35222 1-781)

| IC50 [1] [nM] | IC50 [2] [nM] | IC50 ([2]; absolute IC50) [nM] | SMILES |
| --- | --- | --- | --- |
| 49 | 6200 |  | CC(=O)N1CCC[C@]12CC=CCCCC1(CCCC=CCCCOC(=O)N3CC[C@@](C(=O)N[C@@H](Cc4ccccc4C(F)(F)F)C(=O)N[C@@H](Cc4csc5ccccc45)C(=O)N[C@H](C)C(N)=O)(C3)NC(=O)[C@H](CC(C)C)NC(=O)[C@H](Cc3ccccc3)NC(=O)[C@H](C)NC(=O)[C@H](C)NC(=O)[C@H](Cc3cccc(C(=O)O)c3)NC(=O)[C@H](CC(=O)O)NC1=O)NC(=O)[C@H](CC(C)(C)C)NC(=O)[C@H](CC(=O)O)NC2=O (stereo partly drawn) [I-2091, Ac-PL3-Asp-Npg-B5-Asp-3COOHF-Ala-Ala-Phe-Leu-PyrS2-2F3MeF-BztA-dAla-NH2] |
| 21 |  | 2700 | CC(=O)N1CCC[C@]12CC=CCCCC1(CCCC=CCCCOC(=O)N3CC[C@@](C(=O)N[C@@H](Cc4ccccc4C(F)(F)F)C(=O)N[C@@H](Cc4ccc(Cl)c(Cl)c4)C(=O)N[C@@H](C)C(N)=O)(C3)NC(=O)[C@H](CC(C)C)NC(=O)[C@H](Cc3ccccc3)NC(=O)[C@H](C)NC(=O)[C@H](CCC(N)=O)NC(=O)[C@H](Cc3cccc(C(=O)O)c3)NC(=O)[C@H](CC(=O)O)NC1=O)NC(=O)[C@H](CC(C)(C)C)NC(=O)[C@H](CC(=O)O)NC2=O (stereo partly drawn) [I-2219, Ac-PL3-Asp-Npg-B5-Asp-3COOHF-Gln-Ala-Phe-Leu-PyrS2-2F3MeF-34C1F-Ala-NH2] |
| 18.5 |  | 9700 | CC(=O)N1CCC[C@]12CC=CCCCC1(CCCC=CCCCOC(=O)N3CC[C@@](C(=O)N[C@@H](Cc4ccccc4Cl)C(=O)N[C@@H](Cc4csc5ccccc45)C(=O)N[C@@H](CCC(N)=O)C(=O)N4CCC[C@H]4CO)(C3)NC(=O)[C@H](CC(C)C)NC(=O)[C@H](Cc3ccccc3)NC(=O)[C@H](C)NC(=O)[C@H](C)NC(=O)[C@H](Cc3cccc(C(=O)O)c3)NC(=O)[C@H](CC(=O)O)NC1=O)NC(=O)[C@H](CC(C)(C)C)NC(=O)[C@H](CC(=O)O)NC2=O (stereo partly drawn) [I-1675, Ac-PL3-Asp-Npg-B5-Asp-3COOHF-Ala-Ala-Phe-Leu-PyrS2-2C1F-BztA-Gln-Proo1] |
| 23 |  | 6400 | CC(=O)N1CCC[C@]12CC=CCCCC1(CCCC=CCCCOC(=O)N3CC[C@@](C(=O)N[C@@H](Cc4ccsc4)C(=O)N[C@@H](Cc4csc5ccccc45)C(=O)N[C@@H](CCO)C(N)=O)(C3)NC(=O)[C@H](CC(C)C)NC(=O)[C@H](Cc3ccccc3)NC(=O)[C@H](C)NC(=O)[C@H](C)NC(=O)[C@H](CC(=O)O)NC(=O)[C@H](CC(=O)O)NC1=O)NC(=O)[C@H](CC(C)(C)C)NC(=O)[C@H](CC(=O)O)NC2=O (stereo partly drawn) [I-1499, Ac-PL3-Asp-Npg-B5-Asp-Asp-Ala-Ala-Phe-Leu-PyrS2-3Thi-BztA-Hse-NH2] |
| 122 |  | > 20000 | CC(=O)N1CCC[C@]12CC=CCCCC1(CCCC=CCCCOC(=O)N3CC[C@@](C(=O)N[C@@H](Cc4ccsc4)C(=O)N[C@@H](Cc4csc5ccccc45)C(=O)N[C@@H](CCC(N)=O)C(N)=O)(C3)NC(=O)[C@H](CC(N)=O)NC(=O)[C@H](Cc3ccccc3)NC(=O)[C@H](C)NC(=O)[C@H](C)NC(=O)[C@H]([C@@H](C)O)NC(=O)[C@H](CC(N)=O)NC1=O)NC(=O)[C@H](CC(C)(C)C)NC(=O)[C@H](CC(=O)O)NC2=O (stereo partly drawn) [I-1564, Ac-PL3-Asp-Npg-B5-Asn-Thr-Ala-Ala-Phe-Asn-PyrS2-3Thi-BztA-Gln-NH2] |
| 326 | 25600 |  | CCSSCCOC(=O)C[C@@H]1NC(=O)[C@]2(CC=CCCCC3(CCCC=CCCCOC(=O)N4CC[C@@](C(=O)N[C@@H](Cc5ccsc5)C(=O)N[C@@H](Cc5csc6ccccc56)C(=O)N[C@@H](CCC(N)=O)C(N)=O)(C4)NC(=O)[C@H](CC(C)C)NC(=O)[C@H](Cc4ccccc4)NC(=O)[C@H](C)NC(=O)[C@H](C)NC(=O)[C@H](CC(=O)O)NC(=O)[C@H](CC(=O)O)NC3=O)NC(=O)[C@H](CC(C)(C)C)NC1=O)CCCN2C(C)=O (stereo partly drawn) [I-1963, Ac-PL3-[EtSSEt]AspE-Npg-B5-Asp-Asp-Ala-Ala-Phe-Leu-PyrS2-3Thi-BztA-Gln-NH2] |
| 24 |  | 54500 | CC(=O)N1CCC[C@]12CC=CCCCC1(CCCC=CCCCOC(=O)N3CC[C@@](C(=O)N[C@@H](Cc4ccsc4)C(=O)N[C@@H](Cc4ccc5ccccc5c4)C(=O)N[C@@H](CCC(N)=O)C(N)=O)(C3)NC(=O)[C@H]([C@@H](C)O)NC(=O)[C@H](Cc3ccccc3)NC(=O)[C@H](C)NC(=O)[C@H](C)NC(=O)[C@H](CC(=O)O)NC(=O)[C@H](CC(=O)O)NC1=O)NC(=O)[C@H](CC(C)(C)C)NC(=O)[C@H](CC(=O)O)NC2=O (stereo partly drawn) [I-1233, Ac-PL3-Asp-Npg-B5-Asp-Asp-Ala-Ala-Phe-Thr-PyrS2-3Thi-2NapA-Gln-NH2] |
| 212 | > 20000 |  | CC(=O)N1CCC[C@]12CC=CCCCC1(CCCC=CCCCOC(=O)N3CC[C@@](C(=O)N[C@@H](Cc4ccccc4C(N)=O)C(=O)N[C@@H](Cc4csc5ccccc45)C(=O)N[C@@H](CCO)C(N)=O)(C3)NC(=O)[C@H](CC(N)=O)NC(=O)[C@H](Cc3ccccc3)NC(=O)[C@H](C)NC(=O)[C@H](CCCCNC(C)C)NC(=O)[C@H](CCC(N)=O)NC(=O)[C@H](CC(=O)O)NC1=O)NC(=O)[C@H](CC1CCCCC1)NC(=O)[C@H](CC(N)=O)NC2=O (stereo partly drawn) [I-2168, Ac-PL3-Asn-Cha-B5-Asp-Gln-iPrLys-Ala-Phe-Asn-PyrS2-2cbmf-BztA-Hse-NH2] |
| 69 |  | 12000 | CC(=O)N1CCC[C@]12CC=CCCCC1(CCCC=CCCCOC(=O)N3CC[C@@](C(=O)N[C@@H](Cc4ccccc4Cl)C(=O)N[C@@H](Cc4csc5ccccc45)C(=O)N[C@@H](CO)C(N)=O)(C3)NC(=O)[C@H](Cc3ccccc3)NC(=O)[C@H](Cc3ccccc3)NC(=O)[C@H](C)NC(=O)[C@H](C)NC(=O)[C@H](Cc3ccccc3C(=O)O)NC(=O)[C@H](CC(=O)O)NC1=O)NC(=O)[C@H](CC(C)(C)C)NC(=O)[C@H](CC(=O)O)NC2=O (stereo partly drawn) [I-1662, Ac-PL3-Asp-Npg-B5-Asp-2COOHF-Ala-Ala-Phe-Phe-PyrS2-2C1F-BztA-Ser-NH2] |
| 29 |  | 11900 | CC(=O)N1CCC[C@]12CC=CCCCC1(CCCC=CCCCOC(=O)N3CC[C@@](C(=O)N[C@@H](Cc4ccsc4)C(=O)N[C@@H](Cc4csc5ccccc45)C(=O)N[C@@H](Cc4cccc(C(N)=O)c4)C(N)=O)(C3)NC(=O)[C@H](CC(C)C)NC(=O)[C@H](Cc3ccccc3)NC(=O)[C@H](C)NC(=O)[C@H](C)NC(=O)[C@H](CN(CC(=O)O)CC(F)(F)F)NC(=O)[C@H](CC(=O)O)NC1=O)NC(=O)[C@H](CC(C)(C)C)NC(=O)[C@H](CC(=O)O)NC2=O (stereo partly drawn) [I-1708, Ac-PL3-Asp-Npg-B5-Asp-TfeGA-Ala-Ala-Phe-Leu-PyrS2-3Thi-BztA-3cbmf-NH2] |
| 16 |  | 8900 | CC(=O)N1CCC[C@]12CC=CCCCC1(CCCC=CCCCOC(=O)N3CC[C@@](C(=O)N[C@@H](Cc4ccsc4)C(=O)N[C@@H](Cc4cccc(Br)c4)C(=O)N[C@@H](CCC(N)=O)C(N)=O)(C3)NC(=O)[C@H](CC(C)C)NC(=O)[C@H](Cc3ccccc3)NC(=O)[C@H](C)NC(=O)[C@H](C)NC(=O)[C@H](Cc3cccc(C(=O)O)c3)NC(=O)[C@H](CC(=O)O)NC1=O)NC(=O)[C@H](CC(C)(C)C)NC(=O)[C@H](CC(=O)O)NC2=O (stereo partly drawn) [I-2307, Ac-PL3-Asp-Npg-B5-Asp-3COOHF-Ala-Ala-Phe-Leu-PyrS2-3Thi-3BrF-Gln-NH2] |
| 187 |  | > 20000 | CC(=O)N1CCC[C@]12CC=CCCCC1(CCCC=CCCCOC(=O)N3CC[C@@](C(=O)N[C@@H](Cc4ccsc4)C(=O)N[C@@H](Cc4csc5ccccc45)C(=O)N[C@@H](CC(C)C)C(N)=O)(C3)NC(=O)[C@H](CC(C)C)NC(=O)[C@H](Cc3ccccc3)NC(=O)[C@H](C)NC(=O)[C@H](C)NC(=O)[C@H](CN(CC(=O)O)CC(F)(F)F)NC(=O)[C@H](CC(=O)O)NC1=O)NC(=O)[C@H](CC(C)(C)C)NC(=O)[C@H](CC(=O)O)NC2=O (stereo partly drawn) [I-1747, Ac-PL3-Asp-Npg-B5-Asp-TfeGA-Ala-Ala-Phe-Leu-PyrS2-3Thi-BztA-Leu-NH2] |
| 198 |  | 28400 | CC(=O)N1CCC[C@]12CC=CCCCC1(CCCC=CCCCOC(=O)N3CC[C@@](C(=O)N[C@@H](Cc4ccccc4)C(=O)N[C@@H](Cc4csc5ccccc45)C(=O)N[C@@H](CO)C(N)=O)(C3)NC(=O)[C@H]([C@@H](C)O)NC(=O)[C@H](Cc3cccc(C(F)(F)F)c3)NC(=O)[C@H](C)NC(=O)[C@H](C)NC(=O)[C@H]([C@@H](C)O)NC(=O)[C@H](CC(=O)O)NC1=O)NC(=O)[C@H](CC(C)(C)C)NC(=O)[C@H](CC(=O)O)NC2=O (stereo partly drawn) [I-1268, Ac-PL3-Asp-Npg-B5-Asp-Thr-Ala-Ala-3F3MeF-Thr-PyrS2-Phe-BztA-Ser-NH2] |

— patent US20240116985A1, “STAPLED PEPTIDES AND METHODS THEREOF” (priority 2020, published 2024)
